Key:
[1] = tested on: Sprague Dawley (SD) rats; assay: Serum AST/ALT assay, progression stage; type: in vivo, rat
Method: ALT (Alanine aminotransferase) and AST (Aspartate aminotransferase) are two enzymes that are specifically located in the liver. These two enzymes normally distribute little in blood serum. When liver damage occurs, the hepatocytes break and these two enzymes are released into the blood. An AST/ALT assay was used to diagnose liver damage. Rat blood was collected in a 13 ml BD PLUS-SST II serum vacutainer and allowed to stand for 20 minutes on ice to coagulate. The vacutainer was then centrifuged at 3,500 rpm for 15 minutes. The upper layer serum was collected. The AST/ALT assay was performed within 2 days to minimize the loss of the enzymes.
The serum AST activity assay was measured by a Stanbio AST (UV-Rate) kit. Fifteen milliliters of ddH2O were added into one bottle of the reagent in the kit and mixed thoroughly according to the kit protocol. One milliliter of the reagent was incubated at 37° C. for at least 10 minutes for each reaction. […] Absorbance was measured at OD 340 nm. After incubation for 1 minute, a reading was taken and the reading at this point was counted as time zero. Readings were then taken at 30 second interval for 3 minutes. The change of absorbance per minute was calculated and the AST activity was calculated by the formula
The ALT assay was measured by a Stanbio […]. […]

[2] = tested on: WRL-68 cells; assay: Neutral red cell viability assay; type: cell-based, human; details: SIN up to 1,000 μM, 72 hours
Source text: (§1) The neutral red (NR) cytotoxicity assay is a chemosensitivity assay for measuring cell survival/viability, based on the ability of viable cells to incorporate and bind neutral red, a supravital dye. NR is a weak cationic dye that readily penetrates cell membranes by non-ionic diffusion, accumulating intracellularly in lysosomes, where it binds with anionic sites in the lysosomal matrix. Alterations of the cell surface or the sensitive lysosomal membrane lead to lysosomal fragility and other changes that gradually become irreversible. Such changes brought about by the action of xenobiotics result in a decreased uptake and binding of NR. It is thus possible to distinguish between viable, damaged, or dead cells. (Babich, H et al, 1990)
Three different cell lines HepG2, WRL-68 and Clone 9 cell lines were used in the experiment. HepG2 is a human hepatoblastoma cell line. It is a well known cell model in anti-HCC studies (Alshatwi A A, et al, 2006). WRL-68 is a human normal liver embryo cell line that has a morphologic structure similar to hepatocytes and hepatic primary cultures (Gutierrez-Ruiz, et al, 1994). This cell line was used as the control. Clone 9 is the rat Sprague Dawley (SD) liver normal cell line. […]
HepG2, WRL-68 and Clone 9 cells were grown in complete culture medium (RPMI or DMEM), trypsinized and washed. […] The color was measured at OD540nm.

[3] = tested on: Sprague Dawley (SD) rats; assay: DEN/CCl4-induced hepatoma in rats, promotion stage: liver observation and weight; type: in vivo, rat; details: 15 mg/kg oral daily for 28 weeks
Method: Sprague Dawley (SD) rats were used as the animal model in the in vivo experiments. Male SD rats (80-90 g body weight) were obtained from Laboratory Animal Services Center of The Chinese University of Hong Kong. The rats were housed in the rodent animal room with a 12 hour light-dark cycle and constant temperature of 25° C. Four rats were housed in each case. Food and water were given ad libitum. All the animals were observed and weighed daily.
The experiments were to induce hepatomas in rats. SIN was administered to the rats of treatment group at different stages. Chemical carcinogens were employed in the design of experiment to be able to induce hepatoma within a short time (Ha W. S. et al., 2001). Diethylnitrosamine (DEN) has been frequently used by other scientists to induce hepatoma. DEN administration in combined with CCl4 method was employed in the experiment to induce hepatoma in rats according to the established protocol (Kovalszky, I. et al., 1992).
Experiments of the promotion stage were to study the effect of SIN at the promotion stage of cancer development. Fifteen rats were randomly divided into 3 groups, a negative control group (5 rats), a positive control group (5 rats) and an SIN-treatment group (5 rats). […]
During the experiment, the body weight of the rat was monitored daily. […]

[4] = tested on: HepG2 cells; assay: Neutral red cell viability assay; type: cell-based; details: Homo sapiens
Source text: as §1
Three different cell lines HepG2, WRL-68 and Clone 9 cell lines were used in the experiment. HepG2 is a human hepatoblastoma cell line. It is a well known cell model in anti-HCC studies (Alshatwi A A, et al, 2006). WRL-68 is a human normal liver embryo cell line that has a morphologic structure similar to hepatocytes and hepatic primary cultures (Gutierrez-Ruiz, et al, 1994). This cell line was used as the control. Clone 9 is the rat Sprague Dawley (SD) liver normal cell line. In the in vivo studies, sinigrin (SIN) would be applied to the SD rat animal model. The employment of this cell line in the cell viability study was to test if SIN would be toxic in the rat animal model.
HepG2, WRL-68 and Clone 9 cells were grown in complete culture medium (RPMI or DMEM), trypsinized and washed. Ten thousand cells of each cell type were seeded in 96-well plates. After 24 hours of pre-incubation, cells were treated with different concentrations of SIN and incubated for 72 hours. After incubation, cells were harvested and washed twice with 1×PBS buffer. Fifty microliters of Neutral Red solution were added to each well. The whole plate was placed into an incubator at 37° C. with 5% CO2. After incubation for 1 hour, the plate was washed twice with 1×PBS buffer, and completely dried in a 60° C. oven overnight. […] The color was measured at OD540nm.

[5] = HepG2, 72 h, read-out: viability of HepG2 cells

C=CC/C(=N/OS(=O)(=O)[O-])S[C@@H]1OC(CO)[C@@H](O)C(O)C1O.[K+] (some centres unmarked) [SIN, sinigrin]
rat serum ALT level ([1]; positive control 215% of negative control): levels similar to those in the negative control | rat serum AST level ([1]; positive control 265% of negative control): levels similar to those in the negative control | cell viability of WRL-68 cells (healthy liver cells) [2]: no decrease in cell viability was observed | percentage of liver weight and liver weight index vs negative group [3]: only slightly higher | visible tumors on liver (direct observation) [3]: no visible tumor | viability at 25 µM [4, 5]: ~70% | viability at 1000 µM [4, 5]: ~35% | IC50 ([4]; HepG2, 72 hours, neutral red): < 250 µM
